The source of these data is EP0279757A1, “Kit for use as an agent for the selective destruction of transformed cells” (priority 1987, dated 1988).

What all share (format): cell-based
Assay [1] relates to foyers transformés de cellules BALB/c 3T3. Put plainly: Stimulation of gap junction communication by an exogenous compound and its effect on selective elimination. The protocol: L'efficacité d'élimination a également été augmentée par stimulation de la communication des "gap junctions" par un composé exogène : après addition de dibutyryl c-AMP (1mM) dans une boîte de Pétri qui contient des foyers transformés de cellules BALB/c 3T3, on a observé que les communications intercellulaires sont stimulées dans les foyers transformés et dans la monocouche non transformée; cependant, les deux types de cellules ne communiquent pas entre eux.

Assay [2] deals with cellules épithéliales de foie de rat transformées (IAR 27 ou IAR 6-1) et non transformées (IAR 20). Nature of the assay: Co-culture of transformed and non-transformed cells: micro-injection, dye diffusion and killing after near-UV exposure. The text has this: On a utilisé aussi des cellules épithéliales de foie de rat transformées et non transformées. Puisqu'à l'heure actuelle, il n'existe pas de mé-thode d'induction in situ de foyer épithélial transformée par des cancé-rogènes, on a cocultivé articifiellement des cellules épithéliales de foie de rat transformées et non transformées, de sorte que les deux types de cellules puissent être en contact. Lorsque les cellules transformées (IAR 27 ou IAR 6-1) sont cultivées avec des cellules non transformées (IAR 20), la frontière entre les deux types de cellules est clairement visible à cause de la différence de leur aspect morphologique.

Assay [3] relates to cellules BALB/c 3T3 transfectées par pEJ-ras-H (cellules transformées). Nature of the assay: Killing of transformed cells by micro-injection followed by near-UV irradiation (400 nm). The following applies: micro-injection into transformed cells, irradiation at a frequency close to UV; checked by Trepan blue staining or microscopy. An excerpt: Cet exemple concerne la destruction de cellules transformées, par micro-injection de Lucifer Yellow CH, suivie d'une irradiation à 400 nm.
Pour la production de cellules transformées, on a utilisé des cellules BALB/c 3T3, ce système de transformation assurant la production in situ de cellules transformées sur une couche mono-cellulaire normale, et simule ainsi la cancérogenèse in vivo.
Des cellules BALB/c 3T3 ont été transfectées par un oncogène activé que l'on a isolé d'un carcinome de vessie humaire, le pEJ-ras-H; par cette opération, on a obtenu des cellules transformées. […] Lorsque de nombreuses cellules sont tuées dans un foyer transformé, le foyer entier se décolle du fond de la boîte de Pétri. L'élimination de cellules se vérifie habituellement par coloration au "Trepan blue" mais peut également être confirmée par observation attentive au microscope : ces cellules ne montrent pas de capacité de prolifération; un grand nombre d'entre elles sont décollées.

Another assay deals with cellules transformées. Nature of the assay: Selective destruction of transformed cells by micro-injection into one target cell followed by activation at 400 nm. The conditions noted are these: set of 100 transformed cells, activation at 400 nm for 5 to 10 minutes. An excerpt: Pour être utilisée conformément à l'objectif visé, la susbtance (a) doit être acheminée par toute technique appropriée dans au moins l'une des cellules transformées à détruire, à partir de laquelle elle passe de manière spécifique dans les autres cellules transformées du même site, par l'intermédiaire des "gap junctions". La technique préférée actuellement est la micro-injection, bien connue de l'homme du métier et décrite en détail dans l'article de Cancer Res. cité plus haut.
Dans la pratique, il apparaît avantageux de micro-injecter la substance (a) ou des solutions salines (par exemple en milieu physiologique) de la substance (a), à raison d'un volume pouvant ne pas dépasser environ 10% par rapport au volume de la cellule-cible, par des micro-injections fractionnées et espacées entre elles, par exemple à des intervalles de 10 minutes, ou par une micro-injection en continu.
Il est préférable de respecter une attente entre la dernière micro-injection ou la fin de la micro-injection en continu et l'entrée en fonction du moyen pour l'activation de la susbtance toxique (a), afin que le passage de cette dernière dans l'ensemble des cellules transformées du site traité soit effectif. […]

Consider `CCCC(=O)Nc1ncnc2c1ncn2[C@@H]1O[C@@H]2COP(=O)(O)O[C@H]2[C@H]1OC(=O)CCC` [dibutyryl c-AMP], for which the “élimination sélective dans les cellules transformées” value in assay [1] (1mM added to the Petri dish, elimination by Lucifer Yellow CH micro-injection and irradiation) was “plus facilement”. The communications intercellulaires result in assay [1] (1mM added to the Petri dish, in transformed foci and in the non-transformed monolayer, the two cell types do not communicate with each other) was “stimulées”. In assay [1] (prolonged treatment, transformed phenotypes then began to disappear), the “spécificité de communication intercellulaire” value is listed as “suppression de la spécificité de communication”.
With Lucifer Yellow CH, the mort des cellules-cibles entry in assay [2] (after exposure to near-UV radiation) is recorded as “la mort des cellules”. For the same molecule, the diffusion du colorant entry in assay [2] (micro-injection in co-culture of IAR 27 or IAR 6-1 with IAR 20) was “diffusion sélective du colorant dans les cellules du même type”. Besides, the “élimination sélective des cellules transformées” value in assay [3] is given as “on a pu les tuer”. Moreover, in the assay with cellules transformées, the “destruction de cellules transformées” value is reported as “destruction sélective complète”.
